The text below walks through data of PMC12040169 (PLOS Biology, 2025).

The term viability denotes a read-out of living cells in per cent, often relative to untreated cells.

The data set can be described thus: in vitro. As to conditions: human, hela cells, % viability.

On to `O=[N+]([O-])c1ccccc1S(=O)(=O)N1CCN(Cc2cccnc2)CC1` [CBK264168G], for which the viability at 28.5 h, 10 µM is 68.3%.
As to `COc1cccc(OCC(=O)Nc2ccccc2C(=O)O)c1` [CBK286819], the viability at 28.5 h, 10 µM turned out to be 85.9%.
Take `Cc1nn2cc(-c3n[nH]cc3[N+](=O)[O-])cnc2c1C(=O)O` [CBK268883]: the viability at 28.5 h, 10 µM amounted to 98.3%.
For `O=C(c1[nH]nc2c1CCCC2)N1CCn2cc(C(F)(F)F)nc2C1` [CBK283915], the viability at 28.5 h, 10 µM came to 96.7%.
As to `COc1ccc2nc(-c3ccc(F)c(NC(=O)c4ccccc4)c3)cn2n1` [CBK287827], the viability at 28.5 h, 10 µM worked out at 110%.
In the case of `CC(C)c1ccc(N2C(=O)SC(c3ccccc3)C2=O)cc1` (stereo not drawn) [CBK113687], the viability at 28.5 h, 10 µM turned out to be 91.1%.
Consider `CN(C)c1ccc(-c2nnc([C@H]3CCN(C(=O)c4ccccc4)C3)o2)cc1` [CBK289407], for which the viability at 28.5 h, 10 µM was determined as 85.7%.
Take `Cc1ccc(C)c(C2CCCN2C(=O)c2ccc(=O)n(CC(=O)Nc3ccc(F)cc3)c2)c1` (stereo not drawn) [CBK286495]: the viability at 28.5 h, 10 µM was 93.4%.
With `Cc1nccn1CCNC(=O)CCc1cn(C)c2ccccc12` [CBK281962] the figure was 86.1%; with `Cn1ncc(N2CCC(CNC(=O)c3cc(F)ccc3Cl)C2)cc1=O` (stereo not drawn) [CBK307286], 92.4%; with `COc1ccc([C@@]23CCC(NC(=O)Nc4ccccc4OC(F)F)C[C@@H]2N(C)CC3)cc1OC` (stereo partly drawn) [CBK047547T], 97.9%.
`CCOc1nc(NCCC2=CCCCC2)nc(OCC)n1` [CBK027387]: the viability at 28.5 h, 10 µM was 86.9%.
Take `CC1=CC(C)(NC(N)=O)NC(=S)N1` (stereo not drawn) [CBK020817]: the viability at 28.5 h, 10 µM is 112%.
With `COc1ccc(C(=O)NCC(O)CN2CCOCC2)cc1[N+](=O)[O-]` (stereo not drawn) [CBK265643] the figure was 105%; with `Cc1ccccc1NS(=O)(=O)c1cc(C(=O)Nc2ccc(S(=O)(=O)N3CCCC3)cc2)ccc1C` [CBK269004], 92.9%; with `CC(Oc1ccccc1)c1nnc(SCC(=O)Nc2ccc(Br)cc2F)n1C` (stereo not drawn) [CBK266364], 101%.
Regarding `O=C(NCCCN1CCOCC1)c1cnc(-c2ccccc2)c(-c2ccncc2)c1` [CBK036664], the viability at 28.5 h, 10 µM was 106%.
In the case of `CCOC(=O)c1cnc2c(Cl)cc(Cl)cc2c1NCCN1CCOCC1` [CBK307278], the viability at 28.5 h, 10 µM was determined as 83.5%.
Take `COc1cccc(C(=O)N2CCC(NC(=O)c3ccc(C(F)(F)F)cc3)CC2)c1` [CBK155022]: the viability at 28.5 h, 10 µM was found to be 104%.
With `COc1ncc(-c2cnc3[nH]c(=O)n(C4CC4)c3n2)cn1` [CBK064908], the viability at 28.5 h, 10 µM was 89.1%.
Take `CCOc1ccc2c(c1)CN(CCCc1nc(C)no1)CC2` [CBK305076]: the viability at 28.5 h, 10 µM came out at 99.2%.
With `CN1CCC(N(C)C(=O)NCCOc2ccccc2)C1` (stereo not drawn) [CBK156018] the figure was 107%; with `CC(Sc1ccc(Cl)cc1)C(=O)Nc1ccc(S(=O)(=O)Nc2ccc(Cl)cc2)cc1` (stereo not drawn) [CBK264805], 97.9%.
The figure for `O=S1(=O)CCN(Cc2ccc3c(c2)OCO3)CC1` [CBK074780] is 93.9%.
`O=C(O)C1CCCCC1C(=O)NCCCCc1ccccc1` (stereo not drawn) [CBK287205]: the viability at 28.5 h, 10 µM turned out to be 83.2%.
On to `Cc1nc(C2(O)CCCN(C3CCCC3)CC2)sc1COc1ccc(F)c(F)c1` (stereo not drawn) [CBK286259], for which the viability at 28.5 h, 10 µM came out at 89.7%.
As to `CCN(CC)C(=O)CNS(=O)(=O)c1cc(Br)c(Cl)s1` [CBK034500], the viability at 28.5 h, 10 µM was determined as 112%.
With `CC(=O)Nc1ccc(NC(=O)CSCC(=O)O)cc1` [CBK226269], the viability at 28.5 h, 10 µM stood at 89.3%.
Take `Cc1ccccc1CN1CCC(NC(=O)Cn2cc(Br)ccc2=O)CC1` [CBK305716]: the viability at 28.5 h, 10 µM came out at 93.1%.
Take `CC(=O)N1c2ccccc2N(C(C)=O)C1c1ccc(C2N(C(C)=O)c3ccccc3N2C(C)=O)[nH]1` [CBK007216]: the viability at 28.5 h, 10 µM is 110%.
As for `O=C(O)CC(Cc1ccc(Cl)cc1)C(=O)NCc1ccccc1` (stereo not drawn) [CBK286984], the viability at 28.5 h, 10 µM worked out at 89.4%.
With `C(=N\c1ccc(Cc2ccc(/N=C/c3cccnc3)cc2)cc1)/c1cccnc1` [CBK260884] the figure was 95%; with `CN(C)C(=O)Cn1cccc2cc(-c3ccc(F)cc3)nc1-2` [CBK285349], 105%; with `O=C(O)C1CC(O)CN1S(=O)(=O)c1ccc([N+](=O)[O-])cc1` (stereo not drawn) [CBK266158], 100%.
Consider `COc1ccc(-n2ncc(-c3ccc(Br)cc3F)n2)cc1OC` [CBK112915], for which the viability at 28.5 h, 10 µM was 96.9%.
With `COc1cccc(NC(=O)CSc2nnc(CC(C)C)n2C)c1` [CBK269626] the figure was 103%; with `CCOC(=O)N1CCC(NC(=O)N(CCC#N)C2CCCCC2)CC1` [CBK156384], 90.9%.
For `CC(Cn1cncn1)NS(=O)(=O)c1cccc(C(=O)N2CCCCC2)c1` (stereo not drawn) [CBK306594], the viability at 28.5 h, 10 µM was found to be 86.7%.
With `O=C(Nc1ccc(Br)c2cccnc12)c1ccc(Cn2cc(Cl)cn2)o1` [CBK265893], the viability at 28.5 h, 10 µM came out at 88.2%.
As to `O=C(Nc1cccnc1)C1c2ccccc2Oc2ccccc21` [CBK263129], the viability at 28.5 h, 10 µM is 98.6%.
As for `CCNC(=O)N1CCC[C@@H](O)[C@H](NC(=O)c2ccc(OC)cc2)C1` [CBK289066], the viability at 28.5 h, 10 µM is 88.2%.
The figure for `Cc1cccc(Cn2cnc(NC(=O)COc3ccc([N+](=O)[O-])c(C)c3)n2)c1` [CBK268177] is 118%; for `c1cnc2cc(Oc3ccc4nccnc4c3)ccc2n1` [CBK267266] it is 99.4%; for `Cc1cccc(CN2CCC(NC(=O)Cn3cnnn3)CC2)c1` [CBK305649] it is 95.9%.
Consider `CC(C)c1csc(NC(=O)CC2CCN(C(=O)CC3CCCCC3)CC2)n1` [CBK285963], for which the viability at 28.5 h, 10 µM came to 82.3%.
On to `COc1ccc(C)cc1NC(=O)CCN1CCN(CCO)CC1` [CBK264199], for which the viability at 28.5 h, 10 µM amounted to 97.4%.
With `CCOC(=O)N1CCC(NS(=O)(=O)/C=C/c2ccccc2)CC1` [CBK045458] the figure was 107%; with `Cc1cc(C)n(CC2CCCCN2Cc2ccccn2)n1` (stereo not drawn) [CBK304853], 86.7%.
On to `O=C(c1cc(F)cc(F)c1)N1CCC(n2cnc3cccnc32)CC1` [CBK283636], for which the viability at 28.5 h, 10 µM is 88.6%.
In the case of `Cc1c(C(C)NCC(O)c2ccncc2)cnn1-c1ccc(C#N)cc1` (stereo not drawn) [CBK305403], the viability at 28.5 h, 10 µM was determined as 85%.
As to `Cc1ccc(C(=O)N(Cc2nc(-c3ccc(Cl)cc3)no2)C(C)C)cc1[N+](=O)[O-]` [CBK268422], the viability at 28.5 h, 10 µM is 98.7%.
Consider `Cc1nc([N+](=O)[O-])c(N2CCN(Cc3ccccc3)CC2)n1Cc1ccccc1` [CBK265675], for which the viability at 28.5 h, 10 µM was found to be 88.7%.
Turning to `Cn1cncc1C(=O)N1CCN(Cc2ccccc2)CC1` [CBK200178], the viability at 28.5 h, 10 µM came out at 98.2%.
The figure for `Nc1cc(O)nc(SCC(=O)N2CCN(C(c3ccccc3)c3ccccc3)CC2)n1` [CBK268014] is 94%.
For the compound `COc1ccc(NC(=O)CC2NC3CCCCC3NC2=O)cc1` (stereo not drawn) [CBK266488], the viability at 28.5 h, 10 µM came out at 89.7%.
As to `Cc1ccc(S(=O)(=O)c2ccc(C)c(S(N)(=O)=O)c2)cc1S(N)(=O)=O` [CBK261664], the viability at 28.5 h, 10 µM amounted to 83.6%.
`CC(C)n1c(=O)n(CC(=O)NC2CCCCC2)c2cccnc21` [CBK283696]: the viability at 28.5 h, 10 µM was 99%.
As to `Cc1ccc(NS(=O)(=O)c2cc(C(=O)Nc3ccc(S(=O)(=O)N4CCCC4)cc3)ccc2C)cc1` [CBK268784], the viability at 28.5 h, 10 µM was found to be 89.8%.
For `C[C@H](NC(=O)N1CCN(C(=O)CCc2c[nH]c3ccccc23)CC1)C(=O)O` [CBK286774], the viability at 28.5 h, 10 µM is 97.7%.
Take `Cc1c(C(C)NCC2CCN(C)CC2)cnn1-c1ccc(C#N)cc1` (stereo not drawn) [CBK304058]: the viability at 28.5 h, 10 µM was determined as 97.3%.
With `O=C(Cn1c(NCCO)nc2ccccc21)c1ccc([N+](=O)[O-])cc1` [CBK262139B] the figure was 100%.
Turning to `CC(C)CC1OC(NC2CCCCCC2)=NC1=O` (stereo not drawn) [CBK074901], the viability at 28.5 h, 10 µM amounted to 88.8%.
With `CC(C)c1ccc(S(=O)(=O)N2CCN(c3ncnc4c3oc3ccccc34)CC2)cc1` [CBK296936] the figure was 84.9%; with `Cc1sc2ncn(CCC(=O)O)c(=O)c2c1C` [CBK288191], 115%.
`COc1cc(S(=O)(=O)NCc2ccc3c(c2)OCO3)c(OC)cc1Cl` [CBK264972]: the viability at 28.5 h, 10 µM turned out to be 97.1%.
Take `Cc1nc2c(oc3nc(-c4ccoc4)c4c(c32)CC(C)(C)OC4)c(-c2ccccc2)c1C(=O)O` [CBK265286]: the viability at 28.5 h, 10 µM came to 109%.
Take `Cc1ccccc1NS(=O)(=O)c1cc(CN2C[C@@H](C)NC[C@@H]2C)c2occc2c1` [CBK103579T]: the viability at 28.5 h, 10 µM was 102%.
With `CC(C)CCNC(=O)c1ccc(N2CCN(C(=O)c3ccccc3C(F)(F)F)CC2)nn1` [CBK153222] the figure was 114%.
Consider `CC(C)(C)c1ccc(NC(=O)C(=O)NCCCn2ccnc2)cc1` [CBK267358], for which the viability at 28.5 h, 10 µM was 108%.
With `COc1cc(OC)cc(C(=O)N2CCC3(CC2)CC(=O)c2c(OC)cc(OC)cc2O3)c1` [CBK164233] the figure was 105%; with `CCC1(C)Cc2sc3[nH]c(=O)c(SCC(N)=O)nc3c2CO1` (stereo not drawn) [CBK020581], 87.3%; with `O=S(=O)(c1ccccc1)c1nc(N2CCNCC2)cn2ccnc12` [CBK154875T], 94.7%.
As to `O=C(Nc1cccnc1)c1cc(C(=O)c2ccc(Cl)cc2Cl)c[nH]1` [CBK107406], the viability at 28.5 h, 10 µM was 93.7%.
Consider `CC1(C)CC(NC(=O)C(=O)NCCc2ccc(Cl)cc2)CC(C)(C)N1` [CBK262363], for which the viability at 28.5 h, 10 µM was found to be 83.8%.
In the case of `Nc1ncc(-c2cccc(O)c2)nc1N1CCC(C(=O)O)CC1` [CBK063405], the viability at 28.5 h, 10 µM amounted to 85.3%.
As to `CC(=O)Nc1ccc(S(=O)(=O)/N=C(/Nc2nc(C)cc(C)n2)Nc2ccccc2C)cc1` [CBK264101], the viability at 28.5 h, 10 µM worked out at 95.9%.
With `O=C(COc1ccccc1[N+](=O)[O-])Nc1ccc(Cl)c(-c2nc3ncccc3o2)c1` [CBK268811] the figure was 88.8%; with `c1nc(Nc2ccc3[nH]ccc3c2)cc(-c2ccc3c(c2)OCO3)n1` [CBK037761], 94.4%.
